Data on 1 compound can be found in US12458646B2, “Therapeutic or preventing agent for multiple sclerosis including indole compound” (JAPAN TOBACCO INC., priority 2018, dated 2025).

In test [1] the test system is mouse experimental autoimmune encephalomyelitis (EAE) model. As to the kind of experiment: disease animal model of MS (mouse experimental autoimmune encephalomyelitis (EAE) model, clinical score). In kind it is in vivo. To be noted: experiment using a disease animal model of MS. The procedure: Using a mouse EAE model, the suppressive effect of Compound A on an increase in clinical score was evaluated. The evaluation was performed by reference to non-patent document 3. As the experiment animal, 8-week-old female C57BL/6J mouse (CHARLES RIVER LABORATORIES JAPAN, INC.) was used. Monohydrochloride of Compound A was dissolved in 0.5% (w/v) methylcellulose (MC) to prepare 1 mg/mL, 3 mg/mL and 6 mg/mL Compound A solutions. FTY-720 hydrochloride (Cayman Chemical) was dissolved in 0.5% (w/v) MC to prepare a 0.01 mg/mL FTY-720 solution. […]
As clinical scores (score 0; normal, score 1; limp tail, score 2; hind limb weakness, score 3; partial hind limb paralysis, score 4; complete hind limb paralysis, score 5; moribund state, dead), the condition was observed over time and scored for each individual for 18 days from day 1.
Using a mouse Adoptive transfer EAE model, the suppressive effect of Compound A on an increase in clinical score was evaluated. […]
As clinical scores (score 0; normal, score 1; limp tail, score 2; hind limb weakness, score 3; partial hind limb paralysis, score 4; complete hind limb paralysis, score 5; moribund state, dead), the condition was observed over time and scored for each individual for 20 days from day 1.

Test [2] concerns the target T1, inducible T cell kinase (ITK) (Homo sapiens, UniProt Q08881).
T1 sequence (Q08881 1-620): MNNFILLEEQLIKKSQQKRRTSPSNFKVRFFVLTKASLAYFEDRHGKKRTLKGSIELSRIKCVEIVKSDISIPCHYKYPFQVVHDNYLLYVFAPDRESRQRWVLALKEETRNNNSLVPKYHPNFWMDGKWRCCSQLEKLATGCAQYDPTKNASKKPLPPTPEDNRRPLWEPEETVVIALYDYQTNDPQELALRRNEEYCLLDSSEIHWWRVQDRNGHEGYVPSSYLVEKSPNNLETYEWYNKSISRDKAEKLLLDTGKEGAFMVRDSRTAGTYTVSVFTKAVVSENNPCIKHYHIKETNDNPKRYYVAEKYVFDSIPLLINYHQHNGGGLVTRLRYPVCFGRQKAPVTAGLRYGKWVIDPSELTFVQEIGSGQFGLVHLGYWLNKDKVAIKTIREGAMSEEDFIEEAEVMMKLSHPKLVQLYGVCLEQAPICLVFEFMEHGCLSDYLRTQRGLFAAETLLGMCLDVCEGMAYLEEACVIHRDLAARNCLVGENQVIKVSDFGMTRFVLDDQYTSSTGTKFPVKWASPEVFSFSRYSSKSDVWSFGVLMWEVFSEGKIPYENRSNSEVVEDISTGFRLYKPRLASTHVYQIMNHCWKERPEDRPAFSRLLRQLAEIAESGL
The settings on record: as described in patent document 1 (WO 2011/065402); cited from earlier work.

On to `C[C@@H](C(=O)N(C)c1ccc2cc(-c3n[nH]c4c3CCC(C)(C)C4)[nH]c2c1)N1CCOCC1` [Compound A, N-[2-(6,6-dimethyl-4,5,6,7-tetrahydro-1H-indazol-3-yl)-1H-indol-6-yl]-N-methyl-(2S)-2-(morpholin-4-yl)propanamide], for which, in test [1], the “severity of the disease” value is on record as “significantly reduce severity of the disease”. The ITK inhibitory activity result in test [2] was “has an ITK inhibitory activity”.
